Assay [1] relates to human aortic endothelial cells. Nature of the assay: Reactive oxygen species in human aortic endothelial cells. The assay is classed as cell-based. The following applies: HAECs, compound 13 100 nM, ALK3-Fc 500 ng/mL. The method, then: Cells plated in a 96-well format were pre-treated with compound 13, ALK3-Fc, or vehicle for 30 min followed by treatment with oxidized LDL, BMP2, or vehicle for 20 hours after starvation for six hours. H2O2 production with chloromethyl 2′,7′-dichlorodihydrofluorescein diacetate (DCF, 2 μM) and NADPH oxidase activity with lucigenin were measured as previously described. (Ichinose, F., et al. Cardiomyocyte-specific overexpression of nitric oxide synthase 3 prevents myocardial dysfunction in murine models of septic shock. Circ Res 100, 130-139 (2007); Sorescu, G. P., et al. Bone morphogenic protein 4 produced in endothelial cells by oscillatory shear stress induces monocyte adhesion by stimulating reactive oxygen species production from a nox1-based NADPH oxidase. Circ Res 95, 773-779 (2004); and Abid, M. R., Spokes, K. C., Shih, S. C. & Aird, W. C. NADPH oxidase activity selectively modulates vascular endothelial growth factor signaling pathways. J Biol Chem 282, 35373-35385 (2007).)
Hepatoma G2 (HepG2) cells and human aortic endothelial cells (HAECs) were purchased from the American type culture collection (Manassas, Va.). HepG2 cells were maintained in Eagle's Minimum Essential Medium (EMEM) supplemented with 10% fetal bovine serum, 100 units/ml of penicillin, 0.1 mg/ml of streptomycin and glutamine. HAECs were cultured in endothelial cell basal medium (EBM 2) supplemented with the EBM2 bullet kit (Lonza, Basel, Switzerland). For experiments, cells were seeded into 6 or 12-well plates (BD Falcon, Franklin Lakes, N.J.) at a concentration of 0.5×10^6 cells per 5 mL of media. HAECs were maintained in EBM 2 with 0.1% FBS without additional growth factors for all experiments. HepG2 cells were grown to 70% confluence before they were incubated in EMEM enriched with 0.1% FBS. ApoB-100 measurements were performed in supernatants from HepG2 that had been incubated in EMEM containing 0.5% bovine serum albumin using a commercially available Human ApoB-100 ELISA kit (Mabtech AB, Nacka Strand, Sweden). […]

The target in another assay is T1, HMG-CoA reductase (Homo sapiens, UniProt P04035).
T1 construct: purchased Sigma-Aldrich CS1090
T1 sequence (P04035 426-888 limits assumed): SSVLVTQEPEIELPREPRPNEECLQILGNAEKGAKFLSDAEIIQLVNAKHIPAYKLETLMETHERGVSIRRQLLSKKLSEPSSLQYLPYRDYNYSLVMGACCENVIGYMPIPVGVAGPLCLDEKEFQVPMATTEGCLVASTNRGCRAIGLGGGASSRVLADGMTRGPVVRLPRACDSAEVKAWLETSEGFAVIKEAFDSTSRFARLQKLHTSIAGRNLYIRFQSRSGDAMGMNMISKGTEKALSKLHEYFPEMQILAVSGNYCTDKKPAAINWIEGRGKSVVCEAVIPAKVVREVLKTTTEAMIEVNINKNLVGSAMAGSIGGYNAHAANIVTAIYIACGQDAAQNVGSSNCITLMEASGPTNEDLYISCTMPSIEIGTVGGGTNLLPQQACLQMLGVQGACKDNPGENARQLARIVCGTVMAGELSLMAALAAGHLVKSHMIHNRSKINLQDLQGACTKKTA
In words: HMG-CoA reductase activity assay. The following applies: compound 13 at 50 nM and 100 nM. Format: biochemical. From the text: Enzyme activity was quantified using a commercially available Assay Kit (CS1090 HMG-CoA Reductase Kit, Sigma-Aldrich, St. Louis, Mo.)

Another assay has as its system LDLR−/− mice. In words: Hepatic steatosis in LDLR−/− mice on high fat diet. Format: in vivo. As to conditions: high fat diet 20 weeks, 2.5 mg/kg ip daily. As to the method:
Aortas were either immediately embedded and cryopreserved using optimal cutting-temperature medium (Sakura Tissue-Tek, Zoeterwoude, The Netherlands) or fixed in paraformaldehyde and embedded in parafin. The presence of calcification was determined by staining tissue sections with Alizarin red or Von Kossa. Lipid accumulation in tissue sections was visualized by staining with Oil Red O. Liver sections were prepared from paraformaldehyde-fixed tissue and stained with hematoxylin and eosin.

The test system of another assay is Wnt3a gene expression. In words: Aortic Wnt3a gene expression in MGP−/− mice. As to conditions: 2.5 mg/kg/day IP day 1-28. Format: in vivo. The method, then:
Total cellular RNA from either snap frozen tissues or cultured cells was extracted by the Phenol/guanidine method as described. (Chomczynski, P. & Sacchi, N. Single-step method of RNA isolation by acid guanidinium thiocyanate-phenol-chloroform extraction. Anal Biochem 162, 156-159 (1987).) cDNA was synthesized using Moloney murine leukemia virus reverse transcriptase (Promega, Madison, Wis., USA).
MGP−/− mice were treated with intraperitoneal (IP) injections of either vehicle or compound 13 at 2.5 mg/kg/day from day 1-28. At day 28, aortas were harvested for both histology and RNA isolation. […] To further quantify aortic calcium, a fluorescent bisphosphonate agent that specifically binds to hydroxyapatite (OsteoSense 680 nm, Perkin Elmer) was used. (Aikawa E, et al. Multimodality molecular imaging identifies proteolytic and osteogenic activities in early aortic valve disease. Circulation. 2007; 115(3):377-386 and Zaheer A, et al. In vivo near-infrared fluorescence imaging of osteoblastic activity. Nature biotechnology. 2001; 19(12):1148-1154.) MGP−/− mice at 27 days of age treated with vehicle or compound 13 received OsteoSense via tail vein, and 24 h later, aortas were harvested for imaging. […]

Structures are written as SMILES. Entries after “also recorded” stand apart in the source; their conditions may differ.

In the case of `c1ccc2c(-c3cnn4cc(-c5ccc(N6CCNCC6)cc5)cnc34)ccnc2c1` [Compound 13, 4-[6-(4-piperazin-1-ylphenyl)pyrazolo[1,5-a]pyrimidin-3-yl]quinoline], the “BMP2-induced generation of reactive oxygen species (DCF fluorescence)” value in assay [1] (BMP2 20 ng/mL) was “compound 13- and ALK3-Fc-sensitive manner”. Further, the “oxLDL-induced generation of reactive oxygen species (DCF fluorescence)” value in assay [1] (oxLDL 80 μg/mL) is recorded as “could inhibit oxLDL-induced ROS production”. Moreover, in assay [1], the “oxLDL-induced generation of reactive oxygen species (lucigenin fluorescence)” value is “could be blocked”. The “HMG-CoA reductase enzyme activity in vitro” value on HMG-CoA reductase was “did not inhibit; also recorded: lack of impact”. In addition, the hepatic steatosis result with LDLR−/− mice (2.5 mg/kg) is “protected from hepatic steatosis”; with LDLR−/− mice (listed as compound 13, 2.5 mg/kg) it was “could be prevented”. The “reduction in aortic Wnt3a gene expression” value with Wnt3a gene expression is greater than 5 fold.

These data come from patent US20140038953A1, “COMPOSITIONS AND METHODS FOR CARDIOVASCULAR DISEASE” (THE GENERAL HOSPITAL CORPORATION, priority 2011, published 2014).
